# Experimental data from ChEMBL document CHEMBL1158401, “Development of CoMFA and CoMSIA models of affinity and selectivity for indole ligands of cannabinoid CB1 and CB2 receptors” (Eur J Med Chem, 2009).
# Key:
# [1] = Selectivity ratio of pKi for CB1 receptor in rat brain to pKi for human cloned CB2 receptor; assay type: tissue-based
# [2] = Selectivity ratio of pKi for human cloned CB2 receptor to pKi for CB1 receptor in rat brain; assay type: tissue-based
# [3] = target: Cannabinoid receptor 1 (Rattus norvegicus, UniProt P20272); experiment: Displacement of [3H]CP-55940 from CB1 receptor in rat brain by filtration assay; assay type: tissue-based
# [4] = target: Cannabinoid receptor 2 (Homo sapiens, UniProt P34972); experiment: Displacement of [3H]CP-55940 from human cloned CB2 receptor by filtration assay
# Cannabinoid receptor 2, sequence (P34972 whole entry): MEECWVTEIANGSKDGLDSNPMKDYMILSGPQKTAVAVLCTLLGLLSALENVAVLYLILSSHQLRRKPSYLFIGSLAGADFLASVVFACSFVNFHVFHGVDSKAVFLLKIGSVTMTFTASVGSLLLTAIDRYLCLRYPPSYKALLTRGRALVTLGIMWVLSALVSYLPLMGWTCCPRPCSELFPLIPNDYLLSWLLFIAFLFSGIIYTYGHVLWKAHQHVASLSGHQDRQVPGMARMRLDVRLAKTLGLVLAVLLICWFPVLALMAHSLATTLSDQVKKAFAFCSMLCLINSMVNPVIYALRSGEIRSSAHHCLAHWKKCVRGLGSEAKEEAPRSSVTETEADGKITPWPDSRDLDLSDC
# Cannabinoid receptor 1, sequence (P20272 whole entry): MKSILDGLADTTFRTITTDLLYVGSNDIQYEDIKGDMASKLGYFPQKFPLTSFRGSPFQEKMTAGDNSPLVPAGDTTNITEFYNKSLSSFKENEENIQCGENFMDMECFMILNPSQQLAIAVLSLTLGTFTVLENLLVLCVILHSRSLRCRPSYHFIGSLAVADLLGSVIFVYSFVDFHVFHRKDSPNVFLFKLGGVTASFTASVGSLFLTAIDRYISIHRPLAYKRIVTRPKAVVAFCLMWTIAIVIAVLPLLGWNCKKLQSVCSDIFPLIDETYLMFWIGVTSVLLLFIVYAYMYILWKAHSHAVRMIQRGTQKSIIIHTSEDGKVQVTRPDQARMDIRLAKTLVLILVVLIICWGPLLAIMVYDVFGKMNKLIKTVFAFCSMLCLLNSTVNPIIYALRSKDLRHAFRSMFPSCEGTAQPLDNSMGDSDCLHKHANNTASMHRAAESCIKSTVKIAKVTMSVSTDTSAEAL
Structure (SMILES),Ratio pKi [1],Ratio pKi [2],Ki [3] [nM],Ki [4] [nM]
CCCCCn1c(C)c(C(=O)c2ccc(CCC)c3ccccc23)c2ccccc21,0.965,1.04,–,–
CCCn1c(C)c(C(=O)c2ccc(OCC)c3ccccc23)c2ccccc21,0.919,1.09,–,–
CCCCCn1cc(C(=O)Cc2ccc(Cl)cc2)c2ccccc21,1.02,0.983,–,–
CCCn1cc(C(=O)c2ccc(CC)c3ccccc23)c2ccccc21,0.935,1.07,–,–
CCCn1c(C)c(C(=O)c2cccc3ccc(C)cc23)c2ccccc21,0.829,1.21,344,16
CCCCCn1cc(C(=O)Cc2ccccc2Br)c2ccccc21,1.05,0.953,–,–
CCCc1ccc(C(=O)c2cn(CCC)c3ccccc23)c2ccccc12,0.946,1.06,–,–
CCCn1cc(C(=O)c2cccc3ccc(C)cc23)c2ccccc21,0.956,1.04,–,–
CCCCCn1c(C)c(C(=O)c2ccc(CCCC)c3ccccc23)c2ccccc21,0.901,1.11,–,–
CCCCCn1cc(C(=O)c2cccc3ccc(CC)cc23)c2ccccc21,0.959,1.04,–,–
CCCCCn1cc(C(=O)Cc2ccccc2F)c2ccccc21,1.03,0.969,–,–
CCCCCn1c(C)c(C(=O)Cc2ccc(OC)cc2)c2ccccc21,0.933,1.07,–,–
CCCCCn1cc(C(=O)Cc2ccc(OC)cc2)c2ccccc21,0.94,1.06,–,–
CCCn1c(C)c(C(=O)c2ccc(CC)c3ccccc23)c2ccccc21,0.903,1.11,–,–
CCCCCn1c(C)c(C(=O)c2ccc(CC)c3ccccc23)c2ccccc21,0.941,1.06,–,–
CCCn1cc(C(=O)c2ccc(OCC)c3ccccc23)c2ccccc21,0.934,1.07,–,–
CCCCCn1cc(C(=O)c2cccc3ccccc23)c2ccccc21,0.942,1.06,9.02,2.9
CCCCCn1cc(C(=O)c2ccc(CC)c3ccccc23)c2ccccc21,1.02,0.981,–,–
CCCCCn1cc(C(=O)c2ccc(CCC)c3ccccc23)c2ccccc21,1.02,0.975,–,–
CCCCCn1c(C)c(C(=O)c2cccc3ccccc23)c2ccccc21,0.94,1.06,9.51,2.9
CCCCCn1c(C)c(C(=O)Cc2ccccc2OC)c2ccccc21,1.07,0.932,–,–
CCCc1ccc(C(=O)c2c(C)n(CCC)c3ccccc23)c2ccccc12,0.919,1.09,–,–
CCCCCn1c(C)c(C(=O)Cc2ccccc2Cl)c2ccccc21,1.04,0.963,–,–
CCCCc1ccc(C(=O)c2cn(CCC)c3ccccc23)c2ccccc12,0.888,1.13,–,–

Structure (SMILES),Ratio pKi [1],Ratio pKi [2],Ki [3] [nM],Ki [4] [nM]
CCCCCn1c(C)c(C(=O)Cc2cccc(Cl)c2)c2ccccc21,1.01,0.989,–,–
CCCCCn1c(C)c(C(=O)Cc2ccc(Cl)cc2)c2ccccc21,1.07,0.936,–,–
CCCCCn1cc(C(=O)Cc2ccccc2)c2ccccc21,1.04,0.964,–,–
CCCn1cc(C(=O)c2ccc(OC)c3ccccc23)c2ccccc21,0.961,1.04,63.1,32
CCCn1c(C)c(C(=O)c2cccc3ccc(OC)cc23)c2ccccc21,0.913,1.09,–,–
CCCCCn1c(C)c(C(=O)c2ccc(OC)c3ccccc23)c2ccccc21,0.957,1.04,4.51,1.9
CCCCCn1c(C)c(C(=O)c2cccc3ccc(C)cc23)c2ccccc21,0.856,1.17,10.7,0.49
CCCn1cc(C(=O)c2cccc3ccc(CC)cc23)c2ccccc21,0.936,1.07,–,–
CCCCCn1cc(C(=O)c2ccc(C)c3ccccc23)c2ccccc21,1.03,0.973,0.69,–
CCCn1cc(C(=O)c2cccc3cc(OC)ccc23)c2ccccc21,0.82,1.22,–,–
CCCCCn1c(C)c(C(=O)c2cccc3ccc(OC)cc23)c2ccccc21,0.92,1.09,–,–
CCCCc1ccc(C(=O)c2c(C)n(CCC)c3ccccc23)c2ccccc12,0.935,1.07,–,–
CCCCCn1c(C)c(C(=O)Cc2ccccc2C)c2ccccc21,0.989,1.01,–,–
CCCn1c(C)c(C(=O)c2ccc(OC)c3ccccc23)c2ccccc21,0.901,1.11,476,97.1
CCCn1c(C)c(C(=O)c2ccc(C)c3ccccc23)c2ccccc21,0.88,1.14,–,–
CCCCCn1cc(C(=O)c2cccc3cc(OC)ccc23)c2ccccc21,0.843,1.19,–,–
CCCCCn1c(C)c(C(=O)Cc2ccc(C)cc2)c2ccccc21,1.04,0.957,–,–
CCCn1cc(C(=O)c2cccc3ccccc23)c2ccccc21,0.883,1.13,1050,170
CCCn1cc(C(=O)c2cccc3ccc(OC)cc23)c2ccccc21,0.936,1.07,–,–
CCCCCn1cc(C(=O)Cc2cccc(F)c2)c2ccccc21,1.01,0.985,–,–
CCCn1cc(C(=O)c2ccc(C)c3ccccc23)c2ccccc21,0.728,1.37,–,–
CCCCCn1cc(C(=O)c2c(OC)ccc3ccccc23)c2ccccc21,0.788,1.27,–,–
CCCCCn1c(C)c(C(=O)c2ccc(OCC)c3ccccc23)c2ccccc21,0.991,1.01,–,–
CCCCCn1cc(C(=O)c2ccc(OC)c3ccccc23)c2ccccc21,1.13,0.886,1.2,12.4

Structure (SMILES),Ratio pKi [1],Ratio pKi [2],Ki [3] [nM],Ki [4] [nM]
CCCCCn1cc(C(=O)Cc2ccc(Br)cc2)c2ccccc21,0.969,–,–,–
CCCn1cc(C(=O)c2c(OC)ccc3ccccc23)c2ccccc21,0.764,1.31,–,–
CCCCCn1c(C)c(C(=O)Cc2ccccc2Br)c2ccccc21,1.04,0.963,–,–
CCCn1c(C)c(C(=O)c2cccc3ccc(CC)cc23)c2ccccc21,0.887,1.13,–,–
CCCCCn1cc(C(=O)Cc2ccc(C)cc2)c2ccccc21,1.08,0.925,–,–
CCCCCn1c(C)c(C(=O)Cc2cccc(OC)c2)c2ccccc21,1.02,0.981,–,–
CCCCCn1c(C)c(C(=O)c2cccc3ccc(CC)cc23)c2ccccc21,0.915,1.09,–,–
CCCCCn1c(C)c(C(=O)Cc2ccccc2F)c2ccccc21,1.04,0.96,–,–
CCCCCn1cc(C(=O)Cc2cccc(Cl)c2)c2ccccc21,1.06,0.939,–,–
CCCCCn1cc(C(=O)c2ccc(CCCC)c3ccccc23)c2ccccc21,0.964,1.04,–,–
CCCCCn1cc(C(=O)Cc2cccc(OC)c2)c2ccccc21,1.1,0.907,–,–
CCCCCn1cc(C(=O)c2ccc(OCC)c3ccccc23)c2ccccc21,1.04,0.957,–,–
CCCCCn1cc(C(=O)c2cccc3ccc(OC)cc23)c2ccccc21,1,0.997,–,–
CCCCCn1cc(C(=O)Cc2ccccc2Cl)c2ccccc21,0.993,1.01,–,–
CCCCCn1c(C)c(C(=O)Cc2cccc(F)c2)c2ccccc21,0.945,1.06,–,–
CCCCCn1cc(C(=O)Cc2ccc(F)cc2)c2ccccc21,0.99,1.01,–,–
CCCCCn1c(C)c(C(=O)Cc2ccccc2)c2ccccc21,1.02,0.976,–,–
CCCCCn1c(C)c(C(=O)c2c(OC)ccc3ccccc23)c2ccccc21,0.792,1.26,–,–
CCCCCn1c(C)c(C(=O)c2cccc3cc(OC)ccc23)c2ccccc21,0.83,1.21,–,–
CCCCCn1cc(C(=O)Cc2ccccc2OC)c2ccccc21,1.06,0.94,–,–
CCCCCn1c(C)c(C(=O)c2ccc(C)c3ccccc23)c2ccccc21,0.909,1.1,5,–
CCCCCn1cc(C(=O)Cc2ccccc2C)c2ccccc21,1.1,0.906,–,–
